Tests used:
Assay in all cases: relative viability (nuclei count vs DMSO), 5 days (fraction); higher = more cells survive
SK-LU-1 = system: SK-LU-1
How it was run: (§1)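 Relative viability equals treated-well nuclei counts divided by vehicle-well nuclei counts. Counts came from 4× images of lung cancer cell lines grown in 1536-well plates for 5 days after pin-tool dosing on the day after seeding. Dosing used one drug alone or a fixed anchor-drug dose plus five library-drug doses (not always all listed) in √10 steps, and values are medians of duplicate plates.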

NCI-H1650 = system: NCI-H1650
How it was run: as §1

NCI-H1944 = system: NCI-H1944
How it was run: as §1

UMC-11 = system: UMC-11
How it was run: as §1

COR-L23 = system: COR-L23
How it was run: as §1

HARA = system: HARA
How it was run: as §1

HCC-15 = system: HCC-15
How it was run: as §1

LC-2-ad = system: LC-2-ad
How it was run: as §1

ChaGo-K-1 = system: ChaGo-K-1
How it was run: as §1

NCI-H2405 = system: NCI-H2405
How it was run: as §1

NCI-H1993 = system: NCI-H1993
How it was run: as §1

EMC-BAC-2 = system: EMC-BAC-2
How it was run: as §1

NCI-H23 = system: NCI-H23
How it was run: as §1

NCI-H2009 = system: NCI-H2009
How it was run: as §1

NCI-H838 = system: NCI-H838
How it was run: as §1

HCC-78 = system: HCC-78
How it was run: as §1

LK-2 = system: LK-2
How it was run: as §1

A-427 = system: A-427
How it was run: as §1

ABC-1 = system: ABC-1
How it was run: as §1

HCC-366 = system: HCC-366
How it was run: as §1

NCI-H2023 = system: NCI-H2023
How it was run: as §1

NCI-H1793 = system: NCI-H1793
How it was run: as §1

NCI-H1734 = system: NCI-H1734
How it was run: as §1

NCI-H2228 = system: NCI-H2228
How it was run: as §1

CC(C)Oc1cc(Nc2nc(N[C@@H](C)c3ccc(F)cn3)ncc2Cl)n[nH]1 [AZ23] + Cc1nc(Nc2ncc(C(=O)Nc3c(C)cccc3Cl)s2)cc(N2CCN(CCO)CC2)n1 [Dasatinib] (partner 0.075 µM)
relative viability (SK-LU-1; first compound 0.03162 µM): 0.193 | relative viability (SK-LU-1; first compound 0.3162 µM): 0.152 | relative viability (NCI-H1650; first compound 0.03162 µM): 0.33 | relative viability (NCI-H1650; first compound 0.3162 µM): 0.299 | relative viability (NCI-H1944; first compound 0.01 µM): 0.198 | relative viability (NCI-H1944; first compound 0.03162 µM): 0.246 | relative viability (NCI-H1944; first compound 0.3162 µM): 0.208 | relative viability (UMC-11; first compound 0.01 µM): 0.593 | relative viability (UMC-11; first compound 0.03162 µM): 0.504 | relative viability (UMC-11; first compound 0.3162 µM): 0.481 | relative viability (COR-L23; first compound 0.01 µM): 0.485 | relative viability (COR-L23; first compound 0.03162 µM): 0.645 | relative viability (COR-L23; first compound 0.3162 µM): 0.504 | relative viability (HARA; first compound 0.03162 µM): 0.37 | relative viability (HARA; first compound 0.3162 µM): 0.217 | relative viability (HCC-15; first compound 0.01 µM): 0.642 | relative viability (HCC-15; first compound 0.03162 µM): 0.712 | relative viability (HCC-15; first compound 0.3162 µM): 0.575 | relative viability (LC-2-ad; first compound 0.01 µM): 0.569 | relative viability (LC-2-ad; first compound 0.03162 µM): 0.588 | relative viability (LC-2-ad; first compound 0.3162 µM): 0.564 | relative viability (ChaGo-K-1; first compound 0.01 µM): 0.687 | relative viability (ChaGo-K-1; first compound 0.03162 µM): 0.627 | relative viability (ChaGo-K-1; first compound 0.3162 µM): 0.566 | relative viability (NCI-H2405; first compound 0.01 µM): 0.225 | relative viability (NCI-H2405; first compound 0.03162 µM): 0.23 | relative viability (NCI-H2405; first compound 0.3162 µM): 0.215 | relative viability (NCI-H1993; first compound 0.01 µM): 0.501 | relative viability (NCI-H1993; first compound 0.03162 µM): 0.613 | relative viability (NCI-H1993; first compound 0.3162 µM): 0.522 | relative viability (EMC-BAC-2; first compound 0.01 µM): 0.308 | relative viability (EMC-BAC-2; first compound 0.03162 µM): 0.381 | relative viability (EMC-BAC-2; first compound 0.3162 µM): 0.364 | relative viability (NCI-H23; first compound 0.03162 µM): 0.883 | relative viability (NCI-H23; first compound 0.3162 µM): 0.761 | relative viability (NCI-H2009; first compound 0.01 µM): 0.278 | relative viability (NCI-H2009; first compound 0.03162 µM): 0.341 | relative viability (NCI-H2009; first compound 0.3162 µM): 0.279 | relative viability (NCI-H838; first compound 0.01 µM): 0.255 | relative viability (NCI-H838; first compound 0.03162 µM): 0.317 | relative viability (NCI-H838; first compound 0.3162 µM): 0.293 | relative viability (HCC-78; first compound 0.01 µM): 0.323 | relative viability (HCC-78; first compound 0.03162 µM): 0.381 | relative viability (HCC-78; first compound 0.3162 µM): 0.328 | relative viability (LK-2; first compound 0.01 µM): 0.262 | relative viability (LK-2; first compound 0.03162 µM): 0.286 | relative viability (LK-2; first compound 0.3162 µM): 0.335 | relative viability (A-427; first compound 0.01 µM): 0.701 | relative viability (A-427; first compound 0.03162 µM): 0.862 | relative viability (A-427; first compound 0.3162 µM): 0.684 | relative viability (ABC-1; first compound 0.01 µM): 0.583 | relative viability (ABC-1; first compound 0.03162 µM): 0.766 | relative viability (ABC-1; first compound 0.3162 µM): 0.546 | relative viability (HCC-366; first compound 0.01 µM): 0.58 | relative viability (HCC-366; first compound 0.03162 µM): 0.705 | relative viability (HCC-366; first compound 0.3162 µM): 0.79 | relative viability (NCI-H2023; first compound 0.03162 µM): 0.627 | relative viability (NCI-H2023; first compound 0.3162 µM): 0.57 | relative viability (NCI-H1793; first compound 0.01 µM): 0.375 | relative viability (NCI-H1793; first compound 0.03162 µM): 0.404 | relative viability (NCI-H1793; first compound 0.3162 µM): 0.383 | relative viability (NCI-H1734; first compound 0.01 µM): 0.445 | relative viability (NCI-H1734; first compound 0.03162 µM): 0.454 | relative viability (NCI-H1734; first compound 0.3162 µM): 0.448 | relative viability (NCI-H2228; first compound 0.01 µM): 0.571 | relative viability (NCI-H2228; first compound 0.03162 µM): 0.504 | relative viability (NCI-H2228; first compound 0.3162 µM): 0.445

— the supplement of paper PMC10307832
